What was measured:
[1] = Signal differences in mammalian cell culture media (DMEM) versus physiological buffer (HBSS) with hydrogen peroxide; type: biochemical; settings: 30 minutes
Protocol: A 100 μl sample of 4 mg/ml DMSO solution of PBI 4458 was diluted to 500 μl with HBSS buffer (Invitrogen 14025-092), and 50 μl added to wells A1-A9 of a fresh microtiter plate (“DISP”). 100 μl 4 mg/ml DMSO solution of PBI 4472 was diluted to 500 μl with HBSS, and 50 μl added to wells E1-E9. 90 μl HBSS was added to wells A1-B9 of two new microtiter plates labeled “RT” and “37C”. 90 μl DMEM was added to wells C1-D9 of both plates.
A sample of 30% hydrogen peroxide (Sigma H1009-5 ml) was diluted to 1 mM with Nanopure water, and 7.5 μl 1 mM hydrogen peroxide diluted to 1.5 ml with HBSS, and 90 μl added to wells A4-B6 of plates RT and 37° C. 15 μl 1 mM hydrogen peroxide was diluted to […] with HBSS, and 90 μl added to wells A7-B9 of both plates. 90 μl of HBSS was added to wells A1-B3, and 90 μl of DMEM added to wells C1-D3 of both plates. 7.5 μl 1 mM hydrogen peroxide was diluted to 1.5 ml with DMEM, and 90 μl added to wells C4-D6 of both plates. 15 μl 1 mM hydrogen peroxide was diluted to 1.5 ml with DMEM and 90 μl added to wells C7-D9 of both plates.
10 μl samples of row A of plate “DISP” was transferred to rows A and C of plates RT and 37° C., and 10 μl of row B of plate “DISP” transferred to rows B and D of plates RT and 37° C. The 37° C. plate was incubated at 37° C., 5% CO2, with plate RT incubated at room temperature. Both plates were incubated for 30 minutes.
A conversion solution was made by mixing 7.5 ml of 1 M HEPES, pH 8.0, 7.4 ml Nanopure water and 100 μl 100 mM D cysteine. After mixing, 75 μl was added to all wells of a new luminometer plate.
After incubation, 25 μl from wells A1-D9 of the 37° C. plate was transferred to wells E1-H9 of the new luminometer plate, 25 μl of wells A1-D9 of the RT plate was transferred to wells A1-D9 of new luminometer plate, and the plate incubated at room temperature for 2-3 minutes. A 100 μl sample of LDR (Example 23) was added to wells A1-H9, incubated for 15 minutes at room temperature, and bioluminescence detected on a GloMax® luminometer. After reading, the duplicate wells were averaged, and the averaged values with peroxide addition were compared to those without peroxide (Table 11).

[2] = Background reduction of PBI 4472 with background reduction reagent (TCEP); type: biochemical; settings: 50 μM, 100 mM Tris base pH 10.4, BRR (TCEP) versus untreated, FIG. 4
Protocol: PBI 4472 (50 μM) was incubated with assay buffer (100 mM Tris base, pH 10.4) for 15 minutes at room temperature. The samples were then either treated with a background reduction reagent (BRR; TCEP) or remained untreated. After a 15 minute incubation at room temperature, luciferin detection reagent with 1 mM D-cysteine (Promega Corporation) was added to the samples and incubated for 20 minutes at room temperature. Luminescence was detected on a Tecan F500 plate reader.

Row | Structure (SMILES) | Averaged Relative Light Unit Values ([1]; DMEM, 37 C. plate, 0 uM Per) | Averaged Relative Light Unit Values ([1]; DMEM, 37 C. plate, 5 uM Per) | Averaged Relative Light Unit Values ([1]; DMEM, 37 C. plate, 10 uM Per) | Averaged Relative Light Unit Values ([1]; DMEM, RT plate, 0 uM Per) | Averaged Relative Light Unit Values ([1]; DMEM, RT plate, 5 uM Per) | Averaged Relative Light Unit Values ([1]; DMEM, RT plate, 10 uM Per) | Averaged Relative Light Unit Values ([1]; HBSS, 37 C. plate, 0 uM Per) | Averaged Relative Light Unit Values ([1]; HBSS, 37 C. plate, 5 uM Per) | Averaged Relative Light Unit Values ([1]; HBSS, 37 C. plate, 10 uM Per) | Averaged Relative Light Unit Values ([1]; HBSS, RT plate, 0 uM Per) | Averaged Relative Light Unit Values ([1]; HBSS, RT plate, 5 uM Per) | Averaged Relative Light Unit Values ([1]; HBSS, RT plate, 10 uM Per) | background luminescence with reduction reagent (in words) [2]
1 | CC1(C)OB(/C=C/COc2ccc3nc(C#N)sc3c2)OC1(C)C [PBI 4458, (E)-6-((3-(4,4,5,5-tetramethyl-1,3,2-dioxaborolan-2-yl)allyl)oxy)-benzo[d]thiazole-2-carbonitrile] | 986,772 Relative Light Unit | 5,686,033 Relative Light Unit | 12,130,782 Relative Light Unit | 2,075,191 Relative Light Unit | 8,556,256 Relative Light Unit | 16,016,143 Relative Light Unit | 434,728 Relative Light Unit | 2,791,805 Relative Light Unit | 4,912,905 Relative Light Unit | 853,268 Relative Light Unit | 6,111,214 Relative Light Unit | 10,641,411 Relative Light Unit | –
2 | CC1(C)OB(c2ccc(COc3ccc4nc(C#N)sc4c3)cc2)OC1(C)C [PBI 4472, 6-((4-(4,4,5,5-tetramethyl-1,3,2-dioxaborolan-2-yl)benzyl)oxy)benzo-[d]thiazole-2-carbonitrile] | 400,077 Relative Light Unit | 3,083,589 Relative Light Unit | 5,340,569 Relative Light Unit | 921,496 Relative Light Unit | 4,304,645 Relative Light Unit | 8,071,553 Relative Light Unit | 44,007 Relative Light Unit | 424,851 Relative Light Unit | 715,803 Relative Light Unit | 103,738 Relative Light Unit | 1,106,195 Relative Light Unit | 2,058,421 Relative Light Unit | can reduce background

— patent US8937183B2, “Detection of hydrogen peroxide” (Promega Corporation, priority 2011, dated 2015)
